The values below come from patent US5028731A, “Preparation of mixtures of cypermethrin or cyfluthrin isomers enriched in more active species” (FMC Corporation, priority 1989, dated 1991).

By LC50 is commonly meant the concentration lethal to half of the exposed cells or organisms.

One series relates to Tobacco Budworm. The experiment in a line: Foliar LC50 - Tobacco Budworm. In kind it is in vivo. As to conditions: for LC50: Heliothis virescens. An excerpt: This increase in activity is illustrated in Table II in which the test insect is the economically important tobacco budworm.
Foliar LC50 (ppm) - Tobacco Budworm

For series [1] the following is noted: well known; c2, t2 pairs compared with c1 (III/IV) and t1 (VII/VIII) pairs; cited from earlier work.

SMILES strings stand for the structures. ≈ marks a conversion by molar mass, not a printed value. Read-outs that look alike come from different tables or passages of the source.

With `CC1(C)C(C=C(Cl)Cl)C1C(=O)OC(C#N)c1cccc(Oc2ccccc2)c1` (racemic) [Example 1, (R,S)-(cyano)(3-phenoxyphenyl)methyl cis/trans-3-(2,2-dichloroethenyl)-2,2-dimethylcyclopropanecarboxylate], the LC50 in the series with Tobacco Budworm (Average of Tests 1-3, read-out: Foliar LC50, Average) worked out at 13.2 µg/mL (≈ 31.7 µM); in the series with Tobacco Budworm (Test 1, read-out: Foliar LC50), 8.4 µg/mL (≈ 20.2 µM); in the series on Tobacco Budworm (Test 2, read-out: Foliar LC50) it was 18.7 µg/mL (≈ 44.9 µM); in the series on Tobacco Budworm (Test 3, read-out: Foliar LC50), 12.5 µg/mL (≈ 30 µM).
Regarding `CC1(C)C(C=C(Cl)Cl)C1C(=O)OC(C#N)c1cccc(Oc2ccccc2)c1` (racemic) [Example 5, (R,S)-(cyano)(3-phenoxyphenyl)methyl cis/trans-3-(2,2-dichloroethenyl)-2,2-dimethylcyclopropanecarboxylate], the “Foliar LC50, Average” value with Tobacco Budworm (Average of Tests 1-3) is 9.9 ppm. Also, the entries for the “Foliar LC50” value with Tobacco Budworm (Test 1), with Tobacco Budworm (Test 2) and in the series on Tobacco Budworm (Test 3) were 6.5 ppm, 12.3 ppm and 11.0 ppm, respectively.
For the compound `CC1(C)[C@H](C(=O)O[C@H](C#N)c2cccc(Oc3ccccc3)c2)[C@@H]1C=C(Cl)Cl` (relative stereo) [c2 enantiomer pair], in series [1], the insecticidal activity result was “more insecticidally active”.
As for `CC1(C)[C@H](C=C(Cl)Cl)[C@H]1C(=O)O[C@H](C#N)c1cccc(Oc2ccccc2)c1` (relative stereo) [t2 enantiomer pair], the insecticidal activity result in series [1] is “more insecticidally active”.
Take `CC1(C)[C@H](C(=O)O[C@H](C#N)c2cccc(Oc3ccccc3)c2)[C@@H]1C=C(Cl)Cl` [I, (S)-(cyano)(3-phenoxyphenyl)methyl 1R,cis-3-(2,2-dichloroethenyl)-2,2-dimethylcyclopropanecarboxylate]: the insecticidal activity entry in series [1] is reported as “most insecticidally active”.
Regarding `CC1(C)[C@H](C=C(Cl)Cl)[C@H]1C(=O)O[C@H](C#N)c1cccc(Oc2ccccc2)c1` [V], the insecticidal activity result in series [1] is given as “most insecticidally active”.
